Literature values, collected in patent US20130203688A1, “SUGAR PLANT DERIVED BY-PRODUCTS AND METHODS OF PRODUCTION THEREOF” (FÉDÉRATION DES PRODUCTEURS ACÉRI-COLES DU QUÉBEC, priority 2010, published 2013).

In the case of COc1cc(C2Oc3c(OC)cc(CCCO)cc3C2CO)ccc1O (centres unmarked) [compound 15], the “Properties: antitumor” value (tumor) is listed as “Antitumor/”.

For COc1cc(/C=C/CO)cc(OC)c1O [compound 10, Syringenin], the “Properties: TNFα-secretion inhibitor” value (TNFα secretion) is given as “TNFα- secretion inhibitor”.

In the case of COc1ccc(C2OC(=O)C(O)(Cc3ccc(OC4OC(C)C(O)C(O)C4O)c(OC)c3)C2CO)cc1OC (centres unmarked) [compound 7], the “Properties: α-glucosidase-inhibiting action” value (α-glucosidase) is given as “α- glucosidase- inhibiting” and the “Properties: human HL-60 proliferation-inhibiting action” value (human HL-60) is given as “human HL-60 proliferation- inhibiting”.

In the case of COc1cc(C2c3c(cc(OC)c(O)c3OC)CC(CO)C2CO)cc(OC)c1O (centres unmarked) [compound 8, Lyoniresinol], the “Properties: tyrosinase inhibitory” value (tyrosinase) is given as “tyrosinase inhibitory”.

For Oc1ccccc1O [compound 11, 1,2-Benzenediol(catechol)], the “Properties: antibacterial” value (bacteria) is listed as “Antibacterial”, the “Properties: inhibit the synthesis of melanin” value (synthesis of melanin) is listed as “inhibit the synthesis of melanin” and the “Properties: tyrosinase inhibitory” value (tyrosinase) is listed as “inhibit the activity of tyrosinase”.
